One assay concerns the target Cbl-b (Homo sapiens (Human), UniProt Q13191). As to the kind of experiment: Cbl-b LCK Ub TR-FRET assay (Cbl-b Lck HTRF). Type of assay: biochemical. Particulars: for (fold-selectivity): Cbl-b and C-Cbl selectivity, Lck HTRF; for IC50: read-out: Cbl-b Lck HTRF IC50. The method, then:
(§1) Compounds were 3-fold serially diluted in DMSO in a 384-well polypropylene plate (#P-05525-BC; Labcyte) to generate a source plate with 10 concentrations of each compound, top concentration=2 mM. 80 nL of DMSO or compounds were transferred to each well of a black 384-well ProxiPlate (#6008260; PerkinElmer) using a Labcyte Echo. 1× assay buffer (50 mM HEPES pH7.0, 100 mM NaCl, 0.01% BSA, 0.01% Triton-X100, 1 mM DTT), 2× enzyme solution (16 nM Biotin-Cbl-b or 12 nM Biotin-c-Cbl in 1× assay buffer), 2× kinase mixture (120 nM His-LCK, 1 mM ATP, 10 mM MgCl2 in assay buffer) and 2.33× detection mixture (4.66× solution 1: 163 nM Anti-HA-D2 antibody (#610HADAB; PerkinElmer), 27.96 nM Streptavidin-EU (#AD0062; PerkinElmer), 1.398 mM EDTA in 1× assay buffer+4.66× solution 2: 2.796 μM UBE2D2/Methylated-HA-Ubiquitin thioester adduct (BostonBiochem) in 1× assay buffer) were prepared. 4 μL of 2× enzyme solution was added to each well containing compound, briefly centrifuged to mix, and incubated for 60 min at room temperature. 4 μL of 2× kinase mixture was added, briefly centrifuged to mix, and incubated for 90 min. at room temperature. 6 μL of detection mixture was added to all wells and briefly centrifuged before incubating for 20 min at room temperature. Plates were read for TR-FRET using an Envision at excitation 340 nm, emission at 615 and 665 nm, 4 flashes per well. IC50 was generated using no LCK as the low control and DMSO as the high control.
(§2) Cbl-b Lck HTRF data in Table 3 is measured according to Example 25 herein; C-cbl Lck HTRF data is measured according to Example 25 herein.
(§3) SPR and the LCK biochemical assay are orthogonal assays: SPR is a protein binding assay while the LCK assay is an enzyme activity assay. SPR measures compound binding affinity to CBL-B/C-CBL, whereas LCK assay measures compound inhibition of CBL-B/C-CBL ubiquitin transfer activity.

A further assay deals with c-Cbl (Homo sapiens (Human), UniProt P22681). Description: C-cbl LCK Ub TR-FRET assay (C-cbl Lck HTRF). Type of assay: biochemical. The method, then: as §1, §2, §3
Chain of c-Cbl (P22681 47-435): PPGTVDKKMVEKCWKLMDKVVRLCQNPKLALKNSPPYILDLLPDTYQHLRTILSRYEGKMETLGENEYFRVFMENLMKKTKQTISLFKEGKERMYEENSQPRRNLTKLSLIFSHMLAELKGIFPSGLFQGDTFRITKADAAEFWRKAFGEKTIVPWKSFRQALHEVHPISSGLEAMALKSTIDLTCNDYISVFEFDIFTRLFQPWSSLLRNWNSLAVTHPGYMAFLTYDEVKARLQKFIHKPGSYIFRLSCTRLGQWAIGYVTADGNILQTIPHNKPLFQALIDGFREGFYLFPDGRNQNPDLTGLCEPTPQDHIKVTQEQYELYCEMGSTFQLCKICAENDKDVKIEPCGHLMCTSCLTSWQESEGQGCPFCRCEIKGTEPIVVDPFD

Chain of Cbl-b (Q13191 40-426): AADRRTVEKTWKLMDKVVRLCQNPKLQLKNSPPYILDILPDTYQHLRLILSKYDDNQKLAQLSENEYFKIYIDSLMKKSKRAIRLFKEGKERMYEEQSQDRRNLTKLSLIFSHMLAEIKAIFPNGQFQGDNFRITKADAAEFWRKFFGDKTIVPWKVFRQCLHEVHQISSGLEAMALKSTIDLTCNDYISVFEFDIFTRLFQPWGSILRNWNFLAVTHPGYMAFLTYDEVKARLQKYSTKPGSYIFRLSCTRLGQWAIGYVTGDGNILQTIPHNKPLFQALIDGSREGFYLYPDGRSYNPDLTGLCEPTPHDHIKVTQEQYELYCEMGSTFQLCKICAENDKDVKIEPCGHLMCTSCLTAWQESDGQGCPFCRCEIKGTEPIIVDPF

Consider `Cn1cnnc1C[C@]1(c2cccc(NC(=O)c3cccc(C(F)(F)F)n3)c2)C[C@@H](F)C1` [Compound 19, N-(3-((1S,3R)-3-fluoro-1-((4-methyl-4H-1,2,4-triazol-3-yl)methyl)cyclobutyl)phenyl)-6-(trifluoromethyl)picolinamide], for which, at Cbl-b, the “(fold-selectivity)” value was “(2.1x)” and the IC50 was 280 nM. This compound showed an IC50 against c-Cbl of 570 nM.

For `Cn1cnnc1[C@H](F)[C@@](C)(F)c1cccc(NC(=O)c2cc(CN3CC(C)(F)C3)nc(C3CC3)n2)c1` [Compound 44, 2-cyclopropyl-N-(3-((1S,2S)-1,2-difluoro-1-(4-methyl-4H-1,2,4-triazol-3-yl)propan-2-yl)phenyl)-6-((3-fluoro-3-methylazetidin-1-yl)methyl)pyrimidine-4-carboxamide], at Cbl-b, the “(fold-selectivity)” value is on record as “(2.1x)” and the IC50 worked out at 2300 nM. This compound also had an IC50 against c-Cbl of 4900 nM.

As for `Cn1cnnc1C(F)C1(c2cccc(NC(=O)c3nc(C(F)(F)F)c[nH]3)c2)COC1` (stereo not drawn) [Compound 124, N-(3-(3-(fluoro(4-methyl-4H-1,2,4-triazol-3-yl)methyl)oxetan-3-yl)phenyl)-4-(trifluoromethyl)-1H-imidazole-2-carboxamide], on Cbl-b, the “(fold-selectivity)” value was “(1.1x)”. Besides, the values for the half-maximal inhibitory concentration (IC50) on Cbl-b and against c-Cbl were 3700 nM and 3900 nM, respectively.

As to `Cn1cnnc1[C@H](F)[C@](C)(F)c1cccc(NC(=O)c2cc(CN3CCC4(CC4)C3)nc(C3CC3)n2)c1` [Compound 39, 6-(5-azaspiro[2.4]heptan-5-ylmethyl)-2-cyclopropyl-N-(3-((1S,2R)-1,2-difluoro-1-(4-methyl-4H-1,2,4-triazol-3-yl)propan-2-yl)phenyl)pyrimidine-4-carboxamide], on Cbl-b, the “(fold-selectivity)” value is “(1.9x)” and the half-maximal inhibitory concentration (IC50) came to 180 nM. This compound also returned an IC50 against c-Cbl of 340 nM.

With `Cn1cnnc1CC1(c2cccc(NC(=O)c3cc(CCO)cc(C(F)(F)F)n3)c2)COC1` [Compound 506, 4-(2-hydroxyethyl)-N-(3-(3-((4-methyl-4H-1,2,4-triazol-3-yl)methyl)oxetan-3-yl)phenyl)-6-(trifluoromethyl)picolinamide], at Cbl-b, the “(fold-selectivity)” value is on record as “(1.1x)” and the IC50 was found to be 150 nM. For the same compound, on c-Cbl, the IC50 came out at 160 nM.

`Cn1cnnc1[C@H](F)[C@@]1(c2cccc(NC(=O)c3cccc(C(F)(F)F)n3)c2)CCO1` [Compound 501, N-(3-((S)-2-((S)-fluoro(4-methyl-4H-1,2,4-triazol-3-yl)methyl)oxetan-2-yl)phenyl)-6-(trifluoromethyl)picolinamide]: the “(fold-selectivity)” value at Cbl-b is “(1.1x)”. For the same compound, the values for the IC50 at Cbl-b and against c-Cbl were 15000 nM and 17000 nM, respectively.

On to `Cn1cnnc1[C@H](F)[C@]1(c2cccc(NC(=O)c3cccc(C(F)(F)F)n3)c2)CCO1` [Compound 503, N-(3-((R)-2-((S)-fluoro(4-methyl-4H-1,2,4-triazol-3-yl)methyl)oxetan-2-yl)phenyl)-6-(trifluoromethyl)picolinamide], for which, at Cbl-b, the “(fold-selectivity)” value is “(0.85x)” and the IC50 came out at 20000 nM. Moreover, at c-Cbl, the half-maximal inhibitory concentration (IC50) turned out to be 17000 nM.

`Cn1cnnc1[C@@H](F)[C@@](C)(F)c1cccc(NC(=O)c2cc(CN3CCC4(CC4)C3)cc(C3CC3)n2)c1` [Compound 37, 4-(5-azaspiro[2.4]heptan-5-ylmethyl)-6-cyclopropyl-N-(3-((1R,2S)-1,2-difluoro-1-(4-methyl-4H-1,2,4-triazol-3-yl)propan-2-yl)phenyl)picolinamide]: the “(fold-selectivity)” value on Cbl-b was “(2.0x)”. The IC50 on Cbl-b was found to be 780 nM; at c-Cbl, 1500 nM.

Take `Cn1cnnc1[C@@H](F)C1(c2cccc(NC(=O)c3cc(CN4CC(C)(F)C4)nc(C4CC4)n3)c2)COC1` [Compound 21, 2-cyclopropyl-6-[(3-fluoro-3-methyl-azetidin-1-yl)methyl]-N-[3-[3-[(S)-fluoro-(4-methyl-1,2,4-triazol-3-yl)methyl]oxetan-3-yl]phenyl]pyrimidine-4-carboxamide]: at Cbl-b, the “(fold-selectivity)” value is on record as “(1.3x)” and the IC50 is 510 nM. Moreover, 670 nM corresponded to half-maximal inhibition at c-Cbl (IC50).

On to `Cn1cnnc1[C@H](F)C1(c2cccc(NC(=O)c3cc(CN)cc(C(F)(F)F)n3)c2)COC1.O=CO` [Compound 64, (R)-4-(aminomethyl)-N-(3-(3-(fluoro(4-methyl-4H-1,2,4-triazol-3-yl)methyl)oxetan-3-yl)phenyl)-6-(trifluoromethyl)picolinamide formate], for which, on Cbl-b, the “(fold-selectivity)” value was “(1.2x)” and the IC50 amounted to 200 nM. 230 nM corresponded to half-maximal inhibition on c-Cbl (IC50).

As to `C[C@H](c1cc(C(=O)Nc2cccc(C3(Cc4nncn4C)COC3)c2)nc(C(F)(F)F)c1)N1CC(F)C1` [Compound 2, (R)-4-(1-(3-fluoroazetidin-1-yl)ethyl)-N-(3-(3-((4-methyl-4H-1,2,4-triazol-3-yl)methyl)oxetan-3-yl)phenyl)-6-(trifluoromethyl)picolinamide], the “(fold-selectivity)” value on Cbl-b is on record as “(1.7x)”. Further, the IC50 at Cbl-b is 220 nM; at c-Cbl, 370 nM.

With `Cn1cnnc1[C@@H](F)C(C)(F)c1cccc(NC(=O)c2cc(CN3CC(C)(F)C3)nc(C3CC3)n2)c1` (stereo in doubt) [Compound 46, 2-cyclopropyl-N-(3-((1R,2R)-1,2-difluoro-1-(4-methyl-4H-1,2,4-triazol-3-yl)propan-2-yl)phenyl)-6-((3-fluoro-3-methylazetidin-1-yl)methyl)pyrimidine-4-carboxamide], at Cbl-b, the “(fold-selectivity)” value is given as “(1.9x)” and the IC50 turned out to be 420 nM. The IC50 against c-Cbl worked out at 800 nM.

For the compound `Cn1cnnc1[C@H](F)[C@](C)(F)c1cccc(NC(=O)c2cc(CN3CCC4(CC4)C3)cc(C3CC3)n2)c1` [Compound 35, 4-(5-azaspiro[2.4]heptan-5-ylmethyl)-6-cyclopropyl-N-(3-((1S,2R)-1,2-difluoro-1-(4-methyl-4H-1,2,4-triazol-3-yl)propan-2-yl)phenyl)picolinamide], on Cbl-b, the “(fold-selectivity)” value is reported as “(1.8x)” and the IC50 worked out at 23 nM. On c-Cbl, this compound yielded an IC50 of 400 nM.

In the case of `Cn1cnnc1[C@@H](F)C1(c2cccc(NC(=O)c3cc(CN4CCC5(CC5)C4)nc(C4CC4)n3)c2)COC1` [Compound 63, (S)-6-((5-azaspiro[2.4]heptan-5-yl)methyl)-2-cyclopropyl-N-(3-(3-(fluoro(4-methyl-4H-1,2,4-triazol-3-yl)methyl)oxetan-3-yl)phenyl)pyrimidine-4-carboxamide], on Cbl-b, the “(fold-selectivity)” value was “(1.1x)” and the half-inhibitory concentration (IC50) was 170 nM. Moreover, the IC50 at c-Cbl is 180 nM.

For `Cn1cnnc1[C@H](F)C1(c2cccc(NC(=O)c3cc(CN4CC(C)(F)C4)cc(C4CC4)n3)c2)COC1` [Compound 7, (R)-6-cyclopropyl-N-(3-(3-(fluoro(4-methyl-4H-1,2,4-triazol-3-yl)methyl)oxetan-3-yl)phenyl)-4-((3-fluoro-3-methylazetidin-1-yl)methyl)picolinamide], on Cbl-b, the “(fold-selectivity)” value was “(1.8x)” and the IC50 was 17 nM. The compound further gave an IC50 against c-Cbl of 31 nM.

`Cn1cnnc1[C@H](F)[C@@](C)(F)c1cccc(NC(=O)c2cc(CN3CCC4(CC4)C3)nc(C3CC3)n2)c1` [Compound 40, 6-(5-azaspiro[2.4]heptan-5-ylmethyl)-2-cyclopropyl-N-(3-((1S,2S)-1,2-difluoro-1-(4-methyl-4H-1,2,4-triazol-3-yl)propan-2-yl)phenyl)pyrimidine-4-carboxamide]: on Cbl-b, the “(fold-selectivity)” value is given as “(2.3x)” and the IC50 was 880 nM. This compound had an IC50 at c-Cbl of 2100 nM.

(Values after US20240300927A1, “AMIDES AS CBL-B INHIBITORS” (Genentech, Inc., priority 2021, published 2024).)
